Measured values from ChEMBL document CHEMBL3046285, “Design and synthesis of new 1,2-diaryl-4,5,6,7-tetrahydro-1H-benzo[d] imidazoles as selective cyclooxygenase (COX-2) inhibitors” (Med Chem Res, 2012).

Target: T1, Prostaglandin G/H synthase 1 (Ovis aries, UniProt P05979)
T1 sequence (P05979 whole entry): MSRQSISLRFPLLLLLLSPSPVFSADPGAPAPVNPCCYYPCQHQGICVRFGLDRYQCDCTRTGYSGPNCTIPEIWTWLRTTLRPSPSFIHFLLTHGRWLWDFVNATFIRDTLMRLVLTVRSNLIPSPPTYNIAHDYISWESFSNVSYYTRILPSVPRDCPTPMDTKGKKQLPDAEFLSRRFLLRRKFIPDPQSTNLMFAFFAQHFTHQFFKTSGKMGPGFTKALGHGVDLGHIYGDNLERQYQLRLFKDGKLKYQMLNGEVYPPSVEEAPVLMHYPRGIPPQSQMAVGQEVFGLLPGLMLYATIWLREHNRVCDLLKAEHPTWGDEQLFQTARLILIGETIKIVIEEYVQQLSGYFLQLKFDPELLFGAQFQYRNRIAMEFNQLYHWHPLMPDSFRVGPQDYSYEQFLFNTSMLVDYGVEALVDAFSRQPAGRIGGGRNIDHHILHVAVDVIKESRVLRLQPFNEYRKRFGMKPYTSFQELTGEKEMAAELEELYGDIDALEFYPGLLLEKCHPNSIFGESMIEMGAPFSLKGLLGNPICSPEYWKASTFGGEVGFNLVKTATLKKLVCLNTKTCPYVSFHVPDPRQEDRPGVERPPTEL
Assay: Inhibition of Ovis aries (sheep) COX1 using arachidonic acid as substrate using cyclic naphthalene hydrazide by chemiluminescence assay

Question: For `CS(=O)(=O)c1ccc(-c2nc3c(n2-c2ccccc2)CCCC3)cc1`, which IC50 is on record?
Answer: 56.5 µM

Question: With `CS(=O)(=O)c1ccc(-c2nc3c(n2-c2ccc(F)cc2)CCCC3)cc1` as the compound, how does the IC50 read?
Answer: 55.7 µM

Question: `CC(=O)Nc1ccc(-n2c(-c3ccc(S(C)(=O)=O)cc3)nc3c2CCCC3)cc1` was tested. Which IC50 did it give?
Answer: 36.1 µM

Question: For `CS(=O)(=O)c1ccc(-c2nc3c(n2-c2ccc(Cl)cc2)CCCC3)cc1`, which IC50 is on record?
Answer: 61.6 µM

Question: Which IC50 does the source give for `Cc1ccc(-n2c(-c3ccc(S(C)(=O)=O)cc3)nc3c2CCCC3)cc1` here?
Answer: 40.1 µM

Question: For `COc1ccc(-n2c(-c3ccc(S(C)(=O)=O)cc3)nc3c2CCCC3)cc1`, which IC50 is on record?
Answer: 42.2 µM
